The values below come from patent US8389698B2, “Tanaproget derivatives, metabolites, and uses thereof” (Wyeth LLC, priority 2004, dated 2013).

Data set [1] is described as follows: Drug related components in plasma. Format: in vivo. The note with it: rat, dog, and human plasma. The procedure:
(§1) The glucuronide of tanaproget was prepared in male rat liver microsomes, and the structure was identified as a S-glucuronide conjugate by liquid chromatography (LC)/mass spectrometry (MS) and nuclear magnetic resonance (NMR) spectroscopy. […] This S-glucuronide can also be synthetically prepared simultaneously with a N-glucuronide. The two synthetic glucuronides could be separated by HPLC and their structures were all characterized by LC/MS and NMR spectroscopy. In the following scheme, the NSP-989 terminology is used in the place of tanaproget.

Data set [2] concerns alkaline phosphatase activity in T47D cells. The data set can be described thus: Alkaline phosphatase activity in T47D cells. Format: cell-based. Here is the method: Tanaproget glucuronides are a prodrug of tanaproget, a first-in-class non-steroidal progesterone receptor agonist for use primarily in contraception. The effect of tanaproget glucuronides on alkaline phosphase activity in T47D cells is analyzed as follows.
Culture medium: DMEM:F12 (1:1) (GIBCO, BRL) supplemented with 5% (v/v) charcoal stripped fetal bovine serum (not heat-inactivated), 100 U/mL penicillin, 100 μg/mL streptomycin, and 2 mM GlutaMax (GIBCO, BRL).
Alkaline phosphatase assay buffer: I. 0.1M Tris-HCl, pH 9.8, containing 0.2% Triton X-100, 0.1M Tris-HCl, pH 9.8, containing 4 mM p-nitrophenyl phosphate (Sigma).
Frozen T47D cells are thawed in a 37° C. water bath and diluted to 280,000 cells/mL in culture medium. To each well in a 96-well plate (Falcon, Becton Dickinson Labware), 180 μl of diluted cell suspension is added.
Twenty μl of reference or test compounds diluted in the culture medium is then added to each well. The cells are incubated at 37° C. in a 5% CO2 humidified atmosphere for 24 hours. For high throughput screening, one concentration of each compound will be tested at 0.3 μg/mL. […]
For reference and test compounds, a dose response curve is generated for dose vs. the rate of enzyme reaction (slope). […] EC50 values are calculated from the retransformed values. […]

Data set [3] deals with Glusulase (glucuronidase). The data set can be described thus: Enzymatic hydrolysis of tanaproget glucuronide conjugate in pooled urine by Glusulase. Format: in vitro ADME. Here is the method: In order to confirm that that the tanaproget glucuronide derivative is a prodrug when delivered to patients, the ability of the glucuronide conjugate to be enzymatically cleaved by a glucuronidase which is native to the gastrointestinal tract in humans was used in the following assay.
Pooled urine samples (4-8 hr) from healthy women were hydrolyzed by Glusulase®. Aliquots (1 mL) of pooled urine were adjusted to pH 5 with 0.5 mL of 0.6 M sodium acetate buffer. The diluted urine was mixed with Glusulase® (9,000 units/mL, 100 μL) and incubated at 37° C. for 1 hr with gentle shaking. The reaction was stopped by the addition of 2 mL of acetone and the precipitate was removed by centrifugation. The supernatant was dried under nitrogen in a TurboVap™ (Caliper Life Sciences, Hopkinton, Mass.).

A short description of data set [4]: Metabolite identification in liver microsomes. The data set is classed as in vitro ADME. The note with it: male and female rat, dog, and human liver microsomes. The procedure:
as §1
Incubations (100 mL) were performed with tanaproget (40 μM), UDPGA (5 mM), magnesium chloride (10 mM), and male rat liver microsomes (1.5 mg/mL), in 0.1 M potassium phosphate buffer, pH 7.4 at 37° C. The samples were pre-incubated for 1 minute at 37° C., and the reactions were initiated by the addition of UDPGA. The sample was cooled using an ice bath to stop the reaction after 3 hours. Unreacted tanaproget was removed from the samples by two extractions with diethyl ether (200 mL×2).

In general, EC50 refers to the concentration at which the effect is half-maximal.

SMILES strings stand for the structures.

As for `Cn1c(C#N)ccc1-c1ccc2c(c1)C(C)(C)OC(SC1OC(C(=O)O)C(O)C(O)C1O)=N2` [Tanaproget S-glucuronide, S-(β)-D-glucuronide of tanaproget], in data set [1], the “abundance as drug related component in plasma” value was “major drug related component”. Further, in data set [2] (Homo sapiens, 24 hours treatment), the EC50 stood at 0.1 nM. In data set [2] (alkaline phosphatase, relative to progesterone), the “efficacy as compared to progesterone” value turned out to be 60%. Also, the “conversion of glucuronide into tanaproget by Glusulase” value in data set [3] (pooled urine (4-8 hr) from healthy women, pH 5, Glusulase 9,000 units/mL, 37° C., 1 hr, HPLC and LC/MS) is on record as “confirmed the conversion of glucuronide into parent drug tanaproget”. Moreover, the “conversion of glucuronide into tanaproget in control incubations” value in data set [3] (same conditions without Glusulase, or with Glusulase and 10 mM saccharolactone (β-glucuronidase inhibitor)) is listed as “no conversion of glucuronide conjugate into tanaproget was observed”. The “abundance as metabolite of tanaproget in liver microsomes” value in data set [4] is “major metabolite”.
